Results taken from patent US20040141955A1, “Compositions related to a novel endophytic fungi and methods of use” (priority 2001, published 2004).
Like-named read-outs stand apart in the source and are kept apart here.

Assays:
[1] = system: selected group of 7 test fungi; assay: Artificial atmosphere test of esters and individual esters; format: cell-based
Description: In another set of experiments, test solutions were prepared by placing the volatile organic compounds isolatable from Muscodor albus cultures grown on potato dextrose agar (PDA) in vials in the relative proportions that they occurred in the gas phase of such cultures. The test mixture was placed in a presterilized microcup (4×6 mm) located in the center of a Petri plate containing PDA. When not in use, the mixture was stored at 0° C. The test organisms, freshly growing and excised on 3 mm^3 agar blocks (at least 3 agar blocks per test fungus), were placed 2-3 cm from the microcup and the plate wrapped with two layers of parafilm and grown for 2 or more days at 23° C. Measurements were made on mycelial growth from the edge of the agar blocks. However, in the case of bacteria and Candida albicans they were streaked on the test side of the PDA plate and checked for new visible growth and viability by restreaking from the original area of the agar plate that had been inoculated. Appropriate controls were also set up in which no test solution was placed into the microcup. Tests on 3.2-90 μl of the artificial mixture per 50 CC of air space above the PDA plate were done on 3 replicates in order to obtain IC50 data for each test organism. Viability of the test microbes was made by aseptically removing the small agar block and placing it on a PDA plate and observing growth after 1-3 days.
To determine the relative biological activity of each class of compounds, individual classes were also tested in the relative amounts in which they occur at the optimum concentration of the entire mixture, which is 60 μl of test mixture per 50 CC of air space above the culture in a standard Petri plate. For instance, the esters represent 44% of the mixture of the identified volatiles and were tested at 26.4 μl/50 CC (0.53 μl/CC) air space and the same procedure was used for each of the other classes of compounds that were identified. This was done with a selected group of 7 test fungi.
Each compound in the class of esters was individually evaluated. […]

[2] = system: R. solani; format: cell-based; details: for Percent Inibition of Colony growth at 3 days: 30 μl (0.92) of compound, or 30 μl each (0.92) in mixtures, per 65 mL head space; for Colony diameter at 3 days (mm) / Viability: single compound; for Colony diameter at 3 days (mm): untreated control 70-72 mm; for lethal effect on R. solani: similar to that observed when R. solani is exposed to M. albus
Description: In one set of experiments, a Petri plate divided by plastic walls into 3 equal spaces was used for the assay. A plug of R. solani was placed in one section of the Petri plate containing PDA. On another section of the plate, a lx2 cm piece of sterile filter paper was loaded with the test compound(s). All plates were wrapped with two layers of saran film and incubated at room temperature. The head space in each plate was 65 ml. Removing the agar plug and placing it onto a fresh PDA Petri plate determined the viability of R. Solani exposed to each test compound. Control experiments were also conducted along side without test compound(s).
The diameter of R. solani colonies on untreated control plates was 70-72 mm. The (+) symbol in the viability column of each table above indicates continued viability of the organism after exposure to and removal from the given compound or mixture, while the (−) symbol indicates death of the organism. Multiple (+) and (−) symbols in the same column indicate the results of multiple trials.
Synergism between the volatile organic components produced by M. albus was studied using the method of Limpel as described by Richer (Richer, D. L. 1987). The determination of synergy as described by Limpel can be represented by the following equation: […]
Where Ee is the expected additive effect of the two antifungal compounds, X is the observed percentage of inhibition of the test organism when antifungal agent A is applied alone at the rate used in the mixture, and Y is the observed percentage inhibition of the test organism when antifungal agent B is used alone at the rate used in the mixture.
Experimental studies were set up to determine if synergy exists between the components produced by M. albus. The biological activity of individual volatile organic compounds and mixtures of volatile organic compounds was tested according to the method described in Example 10 above. The observed inhibitory effects of the volatile organic compounds were then compared to the expected additive effects as calculated from the equation above.

[3] = amount 0.92 (60 μl/65 mL head space)

For CC(=O)OCCC(C)C [3-methylbutyl acetate, 1-butanol, 3-methyl, acetate], which “death of test fungus” value ([1]; standard 3 day exposure period) is on record?
Its value is “under no conditions in any test, was death of any test fungus observed”.

And the “inhibitory bioactivity of the individual ester” value ([1]; tested at the level of 0.32 μl/CC (62% of all identified combined esters))?
Its value is “almost completely mimicked the results of all esters”.

With CCOC(=O)CC [Ethyl propionate] as the compound, how does the “Percent Inibition of Colony growth at 3 days” value [2] read?
Its value is 76%.

CCC(C)CO (centres unmarked) [2-Methyl-1-butanol] was tested. Which “Colony diameter at 3 days (mm)” value [2, 3] did it give?
Its value is “no growth”.

With CC(C)CCOC(=O)C(C)C [propionic acid, 2-methyl, 3-methylbutyl ester] as the compound, how does the “inhibitory bioactivity of the individual ester” value ([1]; each ester individually evaluated, comparable test) read?
The value was “minimal inhibitory bioactivity”.

CC(C)CCO [3-methyl-1-butanol] was tested. Which “lethal effect on R. solani” value [2] did it give?
The value was “lethal effect”.

What about the “Colony diameter at 3 days (mm)” value ([2]; amount 0.46 (30 μl/65 mL head space)) of the same compound?
Its value is “fuzz”.

And the Viability [2, 3]?
The Viability was “no”.

And the “Colony diameter at 3 days (mm)” value [2, 3]?
The value was “no growth”.

What does the source list for CCCC(=O)OCC [Ethyl butyrate]?
Percent Inibition of Colony growth at 3 days [2]: 86%; Colony diameter at 3 days (mm) [2, 3]: no growth

How did the “lethal effect on R. solani” value [2] turn out when CC(C)C(=O)O [Isobutyric acid] was run?
Its value is “lethal effect”.

What about the Viability [2, 3] of the same compound?
Its Viability is “no”.

And the “Colony diameter at 3 days (mm)” value [2, 3]?
The value was “no growth”.
